Results: PubChem BioAssay AID686918 (Sanford-Burnham Center for Chemical Genomics, 2013)
Calls of active or inactive are those of the source.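 The calls were made as follows: active = thrombin counterscreen IC50 at or below 100 µM; inactive = the rest.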

Molecular target: Prothrombin (Bos taurus) (UniProt P00735)
Assay: bovine thrombin protease inhibition, dose response, counter-screen for Rpn11 inhibitor project, biochemical, fluorescence polarization, SAR validation (AID 686918)
Details: bovine thrombin cleavage of Ub4-pepOG

Prothrombin (Bos taurus), sequence (P00735 whole entry, looked up): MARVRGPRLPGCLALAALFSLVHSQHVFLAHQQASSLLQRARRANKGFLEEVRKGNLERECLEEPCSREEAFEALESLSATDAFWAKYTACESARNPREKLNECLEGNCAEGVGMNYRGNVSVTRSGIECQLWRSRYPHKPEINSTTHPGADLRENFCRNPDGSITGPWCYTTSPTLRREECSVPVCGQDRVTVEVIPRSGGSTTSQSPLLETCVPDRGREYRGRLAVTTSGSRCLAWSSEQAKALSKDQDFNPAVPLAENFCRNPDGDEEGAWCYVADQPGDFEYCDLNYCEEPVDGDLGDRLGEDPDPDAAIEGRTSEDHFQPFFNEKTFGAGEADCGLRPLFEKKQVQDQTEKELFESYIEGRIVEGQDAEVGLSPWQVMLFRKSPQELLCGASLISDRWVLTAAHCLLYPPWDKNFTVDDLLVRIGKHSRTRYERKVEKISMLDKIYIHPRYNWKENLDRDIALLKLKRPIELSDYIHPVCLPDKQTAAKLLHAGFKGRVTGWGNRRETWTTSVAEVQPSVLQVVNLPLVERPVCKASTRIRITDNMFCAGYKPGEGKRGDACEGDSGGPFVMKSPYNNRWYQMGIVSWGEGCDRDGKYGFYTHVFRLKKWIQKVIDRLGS

| Compound | IC50 |
| --- | --- |
| O=C(Sc1cccc2cccnc12)c1cccc2ccccc12 | > 99 µM (inactive) |
| O=C(Sc1cccc2cccnc12)c1cccc(Cl)c1 | > 99 µM (inactive) |
| CC[C@@H](C)[C@H](NC(=O)c1cnc2c(SSc3cccc4cc(C(=O)N[C@H](C(=O)O)[C@H](C)CC)cnc34)cccc2c1)C(=O)O | > 99 µM (inactive) |
| COC(=O)[C@H](C)NC(=O)c1cnc2c(SSc3cccc4cc(C(=O)N[C@@H](C)C(=O)OC)cnc34)cccc2c1 | > 99 µM (inactive) |
| COc1ccc(C(=O)Sc2cccc3cccnc23)cc1F | > 99 µM (inactive) |
| O=C(Sc1cccc2cccnc12)c1ccc(F)cc1F | > 99 µM (inactive) |
| COC(=O)c1cnc2c(SSc3cccc4cc(C(=O)OC)cnc34)cccc2c1 | > 99 µM (inactive) |
| CC(C)Cc1ccc(C(=O)Sc2cccc3cccnc23)cc1 | > 99 µM (inactive) |
| O=C(Sc1cccc2cccnc12)c1c(Cl)cccc1Cl | > 99 µM (inactive) |
| O=C(O)[C@@H]1CCCN1C(=O)c1cnc2c(SSc3cccc4cc(C(=O)N5CCC[C@H]5C(=O)O)cnc34)cccc2c1 | > 99 µM (inactive) |
| COC(=O)[C@H](CC(C)C)NC(=O)c1cnc2c(SSc3cccc4cc(C(=O)N[C@@H](CC(C)C)C(=O)OC)cnc34)cccc2c1 | > 99 µM (inactive) |
| COc1ccccc1C(=O)Sc1cccc2cccnc12 | > 99 µM (inactive) |
| O=C(Sc1cccc2cccnc12)c1ccccc1OC(F)(F)F | > 99 µM (inactive) |
| N#Cc1cccc(C(=O)Sc2cccc3cccnc23)c1 | > 99 µM (inactive) |
| CC(C)C[C@H](NC(=O)c1cnc2c(SSc3cccc4cc(C(=O)N[C@@H](CC(C)C)C(=O)O)cnc34)cccc2c1)C(=O)O | > 99 µM (inactive) |
| CC(C)(C)OC(=O)CCNC(=O)c1cnc2c(SSc3cccc4cc(C(=O)NCCC(=O)OC(C)(C)C)cnc34)cccc2c1 | > 99 µM (inactive) |
| O=C(O)c1cnc2c(SSc3cccc4cc(C(=O)O)cnc34)cccc2c1 | > 99 µM (inactive) |
| O=C(Sc1cccc2cccnc12)c1ccccc1 | > 99 µM (inactive) |
| Cc1ccc(C(=O)Sc2cccc3cccnc23)cc1 | > 99 µM (inactive) |
| O=C(Sc1cccc2cccnc12)c1ccc(C(F)(F)F)cc1 | > 99 µM (inactive) |
| O=C(Sc1cccc2cccnc12)c1ccc(F)cc1 | > 99 µM (inactive) |
| O=C(Sc1cccc2cccnc12)c1ccccc1F | > 99 µM (inactive) |
| COc1cccc(C(=O)Sc2cccc3cccnc23)c1 | > 99 µM (inactive) |
| C[C@@H](C(=O)O)N(C)C(=O)c1cnc2c(SSc3cccc4cc(C(=O)N(C)[C@@H](C)C(=O)O)cnc34)cccc2c1 | > 99 µM (inactive) |

| Compound | IC50 |
| --- | --- |
| O=C(Sc1cccc2cccnc12)c1ccccc1Cl | > 99 µM (inactive) |
| O=C(Sc1cccc2cccnc12)c1ccc2c(c1)OCO2 | > 99 µM (inactive) |
| CC(C)[C@H](NC(=O)c1cnc2c(SSc3cccc4cc(C(=O)N[C@H](C(=O)O)C(C)C)cnc34)cccc2c1)C(=O)O | > 99 µM (inactive) |
| COc1ccc(C(=O)Sc2cccc3cccnc23)cc1 | > 99 µM (inactive) |
| Cc1ccccc1C(=O)Sc1cccc2cccnc12 | > 99 µM (inactive) |
| O=C(Sc1cccc2cccnc12)C1CCCCC1 | > 99 µM (inactive) |
| O=C(Sc1cccc2cccnc12)c1ccccc1[N+](=O)[O-] | > 99 µM (inactive) |
| CCCc1ccc(C(=O)Sc2cccc3cccnc23)cc1 | > 99 µM (inactive) |
| COC(=O)C[C@H](NC(=O)c1cnc2c(SSc3cccc4cc(C(=O)N[C@@H](CC(=O)OC)C(=O)OC)cnc34)cccc2c1)C(=O)OC | > 99 µM (inactive) |
| CC[C@@H](C)[C@H](NC(=O)c1cnc2c(SSc3cccc4cc(C(=O)N[C@H](C(=O)OC)[C@@H](C)CC)cnc34)cccc2c1)C(=O)OC | > 99 µM (inactive) |
| O=C(Sc1cccc2cccnc12)c1ccc([N+](=O)[O-])cc1 | > 99 µM (inactive) |
| N#Cc1ccc(C(=O)Sc2cccc3cccnc23)cc1 | > 99 µM (inactive) |
| O=C(Sc1cccc2cccnc12)c1ccccc1Br | > 99 µM (inactive) |
| COC(=O)[C@H](C)NC(=O)c1ccnc2c(SSc3cccc4c(C(=O)N[C@@H](C)C(=O)OC)ccnc34)cccc12 | > 99 µM (inactive) |
| COC(=O)[C@@H](NC(=O)c1cnc2c(SSc3cccc4cc(C(=O)N[C@H](C(=O)OC)C(C)C)cnc34)cccc2c1)C(C)C | > 99 µM (inactive) |
| COC(=O)[C@@H]1CCCN1C(=O)c1cnc2c(SSc3cccc4cc(C(=O)N5CCC[C@H]5C(=O)OC)cnc34)cccc2c1 | > 99 µM (inactive) |
| COc1ccc(C(=O)Sc2cccc3cccnc23)cc1OC | > 99 µM (inactive) |
| O=C(Sc1cccc2cccnc12)c1ccc(F)c(F)c1 | > 99 µM (inactive) |
| O=C(Sc1cccc2cccnc12)c1ccccc1I | > 99 µM (inactive) |
| COC(=O)[C@H](C)N(C)C(=O)c1cnc2c(SSc3cccc4cc(C(=O)N(C)[C@@H](C)C(=O)OC)cnc34)cccc2c1 | > 99 µM (inactive) |
| COC(=O)[C@H](CO)NC(=O)c1cnc2c(SSc3cccc4cc(C(=O)N[C@@H](CO)C(=O)OC)cnc34)cccc2c1 | > 99 µM (inactive) |
| Cc1cccc(C(=O)Sc2cccc3cccnc23)c1 | > 99 µM (inactive) |
| O=C(Sc1cccc2cccnc12)c1cccc(C(F)(F)F)c1 | > 99 µM (inactive) |
| CCOc1ccccc1C(=O)Sc1cccc2cccnc12 | > 99 µM (inactive) |
